Experimental data taken from patent US20080194417A1, “Method for Measuring and Comparing the Activity of Biologically Active Compounds” (priority 2005, published 2008).

What was measured:
HepG2 cells [1] = assay: Dose-dependent gene-transcriptional activity (Affymetrix GeneChip U133A) in HepG2 cells treated for 7 days; format: cell-based; conditions: for Difference in EC50 or IC50 values between RRR-α-T and all-rac-α-T / Number of genes dose-dependently regulated: HepG2; for EC50: HepG2, 104 induced genes, read-out: Transcriptional induction potency EC50, Mean ± SD; for EC50 / IC50: 7 days, 0-300 μM α-tocopheryl acetate in the media; for IC50: HepG2, 111 repressed genes, read-out: Transcriptional repression potency IC50, Mean ± SD; for Number of genes dose-dependently regulated: of the 14500 genes on the Affymetrix GeneChip U133A
Experimental: (§1) HepG2 cells (ATCC HB-8065) were cultured in 6 cm dishes in DMEM medium (GIBCO-Invitrogen, Switzerland) with 10% NU serum™ (Becton Dickinson, Switzerland) containing 1% Pen/Strep and undetectable amounts of vitamin E (detection limit 20 nM). Vitamin E compounds were applied as the acetate derivatives: RRR-α-tocopheryl acetate (Sigma and DSM Nutritional Products Ltd., Switzerland; 99-99.5 weight %, determined by gas chromatography) and all-rac-α-tocopheryl acetate (DSM Nutritional Products Ltd, Kaiseraugst, Switzerland; 98.0-99.5 weight %, determined by gas chromatography) were dissolved in 100% ethanol to prepare stock solutions. Treatment media were prepared by the addition of RRR-α-tocopheryl acetate (RRR-α-Tac) or all-rac-α-tocopheryl acetate (all-rac-α-Tac) to the basic medium at the following final concentrations: 0 (ethanol only, 1% final concentration), 10, 30, 80 and 300 μM. Treatment media were aliquoted and stored at −20° C. The vitamin E acetate treatment was performed for 7 days during the logarithmic growth phase of the cells. All treatment media were exchanged for fresh media every 24 hours. This treatment strategy has been chosen in the attempt to keep vitamin E acetate concentrations stable over time and to reach steady state intracellular vitamin E concentrations at 7 days of supplementation. All treatments were performed in quadruplicate dishes.
Cells were washed three times with PBS and lyzed with RTL buffer (Qiagen, Basel, Switzerland). Total RNA isolation was performed using RNeasy mini spin columns (Qiagen) and DNase digested on the columns (RNase-Free DNase Set, Qiagen) according to the manufacturer's description. cRNA preparation and Affymetrix GeneChip (U133A) hybridization were performed as described.
Data processing was carried out using the RACE-A analysis tool (Roche Bioinformatics, Basel, Switzerland) as described. Briefly, the arrays were normalized against the mean of the total sum of Average Difference (AvgDiff) values across all arrays used. Mean Average Difference values (MeanAvgDiff) were calculated as the means of one experiment performed in quadruplicate. Possible outliers were identified using the procedure of Nalimov with a 95% confidence interval. Subsequently, mean change factors (Chgf) for each individual gene were calculated among the different treatment groups and control using pair wise comparisons, and statistical significance was assessed by Student's t-test with prior testing for the normal distribution of the data. Applicant selected for those genes showing a dose-dependent regulation by vitamin E, i.e. maximal MeanAvgDiff>10 combined with a significant (p<0.05) differential Chgf between the vitamin E supplemented groups and the control group. The analysis of the experimental data obtained upon stimulation/treatment of the cells with RRR-α-Tac or all-rac-α-Tac was performed independently from each other.
EC50 and IC50 values, respectively, were determined by applying the standard four parameter model [y=a+(b−a)/(1+(x/c)̂d)] using the XL-Fit Software 3.0 (IDBS Inc. Emeryville, USA), where y is the normalized gene expression, x is the concentration of RRR-α-tocopherol or all-rac-α-tocopherol in the media and c corresponds to the EC50 and IC50 values, respectively. The potency-ratios were calculated as following: EC50RRR-α-T/EC50all-rac-α-T and IC50RRR-α-T/IC50all-rac-α-T.

HepG2 cells [2] = assay: Cellular α-tocopherol concentrations in HepG2 cells (HPLC); format: cell-based; conditions: for Difference between the intracellular concentrations of RRR-α-T and all-rac-α-T: HepG2, 7 days; for Amount of free cellular vitamin E compared to control cells: HepG2, 7 days, 10, 30, 80 or 300 μM acetate in the media
Experimental: as §1
Adherent HepG2 cells were trypsinized, collected and washed three times with PBS containing 1% bovine serum albumin. Cells were saponified in a methanolic potassium hydroxide solution. The solution was diluted with 35% ethanol and extracted with hexane/toluene. α-Tocopheryl acetate and hydrolyzed α-tocopherols were quantified by isocratic HPLC analysis.

[3] = animal studies; cited from earlier work

Cc1c(C)c2c(c(C)c1O)CC[C@@](C)(CCC[C@H](C)CCC[C@H](C)CCCC(C)C)O2 [RRR-α-T, (2R,4′R,8′R)-α-tocopherol]
Difference in EC50 or IC50 values between RRR-α-T and all-rac-α-T (HepG2 cells [1]): no statistically significant differences
Potency ratio EC50RRR-α-T/EC50all-rac-α-T, Mean ± SD (HepG2 cells [1]; HepG2, 104 genes): 0.9 ± 0.6
EC50 (HepG2 cells [1]): 18 ± 10.7 µM
Potency ratio IC50RRR-α-T/IC50all-rac-α-T, Mean ± SD (HepG2 cells [1]; HepG2, 111 genes): 1.2 ± 0.7
IC50 (HepG2 cells [1]): 6.4 ± 6.8 µM
Overall biopotency factor (mean of all 215 potency ratios RRR-α-T to all-rac-α-T) (HepG2 cells [1]; HepG2, 215 genes): 1.05
Potency ratio Overall, Mean ± SD (HepG2 cells [1]; HepG2, 215 genes): 1.05 ± 0.7
Number of genes dose-dependently regulated (HepG2 cells [1]): 215
Difference between the intracellular concentrations of RRR-α-T and all-rac-α-T (HepG2 cells [2]): no significant difference
Amount of free cellular vitamin E compared to control cells (HepG2 cells [2]): significantly increased
Biological potency relative to all-rac-α-T (times) [3]: 1.36

Cc1c(C)c2c(c(C)c1O)CCC(C)(CCCC(C)CCCC(C)CCCC(C)C)O2 (racemic) [all-rac-α-T, all-rac-α-tocopherol]
Difference in EC50 or IC50 values between RRR-α-T and all-rac-α-T (HepG2 cells [1]): no statistically significant differences
EC50 (HepG2 cells [1]): 14 ± 9.1 µM
IC50 (HepG2 cells [1]): 6 ± 4.5 µM
Number of genes dose-dependently regulated (HepG2 cells [1]): 215
Difference between the intracellular concentrations of RRR-α-T and all-rac-α-T (HepG2 cells [2]): no significant difference
Amount of free cellular vitamin E compared to control cells (HepG2 cells [2]): significantly increased
